Data published in US8637467B2, “Pharmaceutical being used for treating cancer and fibrosis disease and the composition and uses thereof” (Wuxi MTLH Biotechnology Co., Ltd., priority 2008, dated 2014).
Where no end group is shown, it is not given here.

Columns and labels:
BEL-7402 = type: cell-based, Human; conditions: 72 h
Description: (§1) 2. Cell Lines • Human liver cancer cell line (SMMC-7721, BEL-7402, BEL-7402) were purchased from National Medical Academy of Sciences Tissue Bank and Chinese Academy of Sciences, Shanghai Cell line Research Institute.
(§2) 3. Cell Culture • All cell lines were incubated at 37C, 5% CO2 incubator with saturated humidity. Culture media was RPMI1640 media with 10% heat inactivated FBS, penicillin 100 u/ml, streptomycin 100 u/ml. After 48 hours media was changed. Cells were released with 0.25% trypsin and propagate. Cells used in the experiment were in log phase. Cell viability was determined using trypan blue staining.
(§3) 4. Methods • Take cells at log phase and release with 0.125% trypsin+0.01% EDTA and dilute cells to 2-4×10^4 cells/ml. Cells were placed in 96 well plate (180 ul/well), and were incubated at 37 C CO2 incubator for 24 hours. Media was changed, then peptide SEQ ID No:1 was added to the well (20 ul/well), incubate for 72 hours. Add MTT into 96 well plate (20 ul/well), and incubate for 4 hours. Media was removed, add DMSO (150 ul/well). The plate was shaken for 10 minutes. 7 concentration points (0.1 to 10 uM) was examined. Absorbance at 570 nm was measured for each well to calculate the IC50. IC50=(O.D. at well with no peptide−O.D. at well with peptide)/O.D. at well with no peptide

BEL-7404 = type: cell-based, Human; conditions: 72 h
Description: as §1, §2, §3

SMMC-7721 = type: cell-based, Human; conditions: 72 h
Description: as §1, §2, §3

[1] = Mice weight in xenograph tumor mice models; type: in vivo, BALB/cA nude mice; conditions: all the xenograph tumor mice models, different concentration
Description: The tumor of xenograph nude mice grew to 100˜300 mm^3. Tumor mice were divided into different groups for drug testing. In the experiment below, there were 12 nude mice in negative control group, and 6 nude mice in the group with tested drug. Tumor diameter was measured three times each week, and mice weight was measured at the same time.

[2] = tested on: human liver cancer cell BEL-7402; test: Migration of liver cancer cells through base membrane; type: cell-based
Description: Peptide SEQ ID No:1 from example 1 can inhibit human liver cancer cell BEL-7402 migration from base membrane, at 0.01, 0.1, or 1 mg/ml (12 hour incubation).

SKVTKKYHEVLQLRPKTGVRGLHKSLTDVALEHHEECDCVCRGSTGG-OH (cysteines drawn unpaired) [Peptide SEQ ID NO:1]
IC50 (BEL-7402): 1780 nM
IC50 (BEL-7404): 2330 nM
IC50 (SMMC-7721): 1250 nM
weight of the mice [1]: not affected
migration from base membrane ([2]; BEL-7402, 0.01, 0.1, or 1 mg/ml, 12 hour incubation): can inhibit
cancer cell migration ability through base membrane ([2]; incubated with cancer cells for 12 hours, FIG. 7): inhibits cancer cell migration ability through base membrane
